The text below walks through data of paper PMC7821958, “Synthesis, in vitro enzyme activity and molecular docking studies of new benzylamine-sulfonamide derivatives as selective MAO-B inhibitors” (Journal of Enzyme Inhibition and Medicinal Chemistry, 2020).

Entries after “also recorded” stand apart in the source; their conditions may differ. Some results are limits rather than exact numbers.

The target of data set [1] is T1, hMAO-B (Homo sapiens, UniProt P27338).
T1 construct: purchased Sigma-Aldrich (Steinheim, Germany)
T1 sequence (P27338 1-520): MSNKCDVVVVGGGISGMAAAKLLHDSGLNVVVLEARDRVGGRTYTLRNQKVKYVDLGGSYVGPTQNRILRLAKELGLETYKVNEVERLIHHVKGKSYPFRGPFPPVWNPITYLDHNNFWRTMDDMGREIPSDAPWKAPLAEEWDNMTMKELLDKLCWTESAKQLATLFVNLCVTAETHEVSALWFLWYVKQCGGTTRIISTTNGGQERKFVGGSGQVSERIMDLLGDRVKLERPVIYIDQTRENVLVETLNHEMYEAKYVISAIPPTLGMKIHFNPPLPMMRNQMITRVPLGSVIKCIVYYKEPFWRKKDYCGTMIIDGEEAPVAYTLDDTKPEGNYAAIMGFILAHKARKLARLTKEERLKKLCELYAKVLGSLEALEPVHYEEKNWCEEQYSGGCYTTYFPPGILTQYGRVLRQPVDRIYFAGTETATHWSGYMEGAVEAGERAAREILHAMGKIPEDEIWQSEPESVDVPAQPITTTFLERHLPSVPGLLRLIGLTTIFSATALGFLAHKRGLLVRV
The experiment in a line: Enzyme kinetic studies (Lineweaver-Burk plots, secondary plot). It counts as biochemical. The note with it: for type of inhibition: Lineweaver-Burk plot; for Ki: substrate tyramine, secondary plot, read-out: Ki, steady-state inhibition constant. As for the experimental part:
The same materials were used in the MAO inhibition assay. […] All processes were evaluated in quadruplicate. The results were analysed as Lineweaver–Burk plots by means of Microsoft Office Excel 2013. The […] of the Lineweaver–Burk plots were replotted versus the inhibitor concentration, and the Ki values were determined from the x-axis intercept as −Ki.
Enzyme kinetics studies were performed to determine the mechanism of hMAO-B inhibition by using a procedure similar to that of the MAO inhibition assay. […] In order to estimate the type of inhibition of these compounds, linear Lineweaver-Burk graphs were used. Substrate velocity curves in the absence and presence of compounds 4i and 4t were recorded. […] In each case, the initial velocity measurements were obtained at different substrate (tyramine) concentrations ranging from 20 μM to 0.625 μM.
The type of inhibition can be determined as either reversible or irreversible by using the Lineweaver-Burk plots. The reversible inhibition type can be classified as mixed-type, uncompetitive, competitive, or non-competitive[17]^,[20–22]. […] Competitive inhibition is seen if the lines intersect on the y-axis, and the slopes and x-intercepts are different. On the contrary, non-competitive inhibition has the opposite result: the plotted lines have the same x-intercept but there are diverse slopes and y-intercepts.

A short description of the next data set: Cytotoxicity MTT assay. The note with it: mouse, NIH/3T3 mouse embryonic fibroblast cells, read-out: IC50 NIH/3T3 cell line. It is filed as cell-based, mouse. As for the experimental part: (§1) The NIH/3T3 mouse embryonic fibroblast cell line (ATCC®CRL-1658 ™, London, UK) was used for cytotoxicity assays. The incubation period of NIH/3T3 cells was based on the supplier's recommendation. NIH/3T3 cells were seeded at 1 × 10^4 cells into each well of 96-well plates. MTT assay was carried out in accordance with the standards previously described manner[23]^,[24]. The compounds were tested between 1 and 0.000316 mM concentrations.
Background: Tetrazolium assays rely on reduction of a dye to a coloured formazan, in cell work by metabolically active cells.

In data set [2] the test system is NIH/3T3 mouse embryonic fibroblast cell line. The experiment in a line: Cytotoxicity MTT assay. It is filed as cell-based. Conditions: NIH3T3 cells. On the procedure:
as §1

Data set [3] deals with T1, hMAO-B. The experiment in a line: MAO-B inhibition assay, fluorometric (Amplex Red / horseradish peroxidase-coupled).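 On all read-outs here: fluorescence read at Ex 535 nm and Em 587 nm over 30 min, linear phase, inhibition relative to uninhibited control wells, IC50 from log concentration–response curves.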 It counts as biochemical. The note with it: for inhibition at 1000 µM: 10^−3 M; for inhibition at 100 µM: 10^−4 M; for inhibition at 10 µM: 10^−5 M; for inhibition at 1 µM: 10^−6 M; for inhibition at 0.1 µM: 10^−7 M; for inhibition at 0.01 µM: 10^−8 M; for inhibition at 0.001 µM: 10^−9 M; for IC50: Table 2, mean ± SD, read-out: IC50 against MAO-B.
Description: FCt2: Fluorescence of a control well measured at t2 time, FCt1: Fluorescence of a control well measured at t2 time, FIt2: Fluorescence of an inhibitor well measured at t2 time, FIt1: Fluorescence of an inhibitor well measured at t1 time,

Another data set addresses T2, hMAO-A (Homo sapiens, UniProt P21397).
T2 construct: purchased Sigma-Aldrich (Steinheim, Germany)
T2 sequence (P21397 1-527): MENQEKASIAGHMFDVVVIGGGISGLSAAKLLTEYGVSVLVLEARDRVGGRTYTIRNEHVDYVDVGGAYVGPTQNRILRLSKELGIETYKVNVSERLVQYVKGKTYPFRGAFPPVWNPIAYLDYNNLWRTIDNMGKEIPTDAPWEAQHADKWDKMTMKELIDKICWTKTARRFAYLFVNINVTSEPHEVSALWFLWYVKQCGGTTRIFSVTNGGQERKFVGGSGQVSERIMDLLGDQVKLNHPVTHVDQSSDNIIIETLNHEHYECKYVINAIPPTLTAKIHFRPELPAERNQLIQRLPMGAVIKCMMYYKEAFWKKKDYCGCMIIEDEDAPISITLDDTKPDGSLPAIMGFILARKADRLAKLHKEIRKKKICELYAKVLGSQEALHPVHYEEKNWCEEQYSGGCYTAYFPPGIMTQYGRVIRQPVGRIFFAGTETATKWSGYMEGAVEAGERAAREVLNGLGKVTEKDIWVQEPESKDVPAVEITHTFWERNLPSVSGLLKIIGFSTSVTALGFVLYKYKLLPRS
The experiment in a line: MAO-A inhibition assay, fluorometric (Amplex Red / horseradish peroxidase-coupled). It is filed as biochemical. The note with it: read-out: MAO-A % Inhibition; for inhibition at 1000 µM: 10^−3 M; for inhibition at 100 µM: 10^−4 M. As for the experimental part:
A Biotek Precision XS robotic system (USA) was used for all pipetting operations. Measurements were performed with the use of BioTek-Synergy H1 microplate reader (USA) based upon the fluorescence generated (excitation, 535 nm, emission, 587 nm) over a 30 min period, in which the fluorescence increased linearly.
Enzymatic assay was performed according to recent method pronounced by our research group[17]^,[20–22]. Control, blank and all concentrations of obtained compounds were tested in quadruplicate and inhibition percent was calculated with following equation: % Inhibition=(FCt2 − FCt1) − (FIt2 − FIt1)/FCt2 − FCt1 × 100
FCt2: Fluorescence of a control well measured at t2 time, FCt1: Fluorescence of a control well measured at […]: Fluorescence of an inhibitor well measured at t2 time, FIt1: Fluorescence of an inhibitor well measured at t1 time,
The IC50 values were calculated using a dose-response curve achieved by plotting the percentage inhibition versus the log concentration using GraphPad ‘PRISM’ software (version 5.0).
All the obtained benzylamine-sulphonamide derivatives 4a–4u were investigated for their inhibitory activity against MAO isoforms using a previously described in vitro fluorometric method, which is based on the detection of H2O2 in a horseradish peroxidase-coupled reaction using 10-acetyl-3,7-dihydroxyphenoxazine (Amplex Red reagent)[17]^,[20–22].
The assay was carried out in two steps. […].

In the next data set the test system is MAO-B. Also on record: method as in PMID 27028260. Conditions: read-out: IC50 against MAO-B; cited from earlier work.

As usually defined, the Ki is a dissociation constant, usually derived from enzyme kinetics or from competition with a known ligand. Usually melting point stands for the temperature, or range, at which the solid turns liquid. By inhibition is commonly meant the relative decrease from the control value, in per cent. With `NS(=O)(=O)c1ccc(N(Cc2ccccc2)C(=O)CSc2nc3cc(Cl)ccc3s2)cc1` [Compound 4i, N-Benzyl-2-((5-chlorobenzothiazol-2-yl)thio)-N-(4-sulfamoylphenyl)acetamide], the melting point lay in the range of 114 to 116 °C. Besides, at hMAO-B [1], the type of inhibition result is “reversible and non-competitive”; the inhibition constant (Ki) was 0.036 µM. For the same molecule, in the data set “Cytotoxicity MTT assay”, the IC50 was more than 1000 µM. Further, the “cytotoxicity (in words)” value in data set [2] is listed as “non-toxic; also recorded: non-cytotoxic at their effective concentrations”. On hMAO-B [3], this molecule came in with an inhibition at 1000 µM of 94.9 ± 1.41%, an inhibition at 100 µM of 91.8 ± 1.26%, an inhibition at 10 µM of 78.6 ± 1.11% and an inhibition at 1 µM of 72.5 ± 1.11%. Besides, on hMAO-B [3], the inhibition at 0.1 µM came out at 65.2 ± 0.985%, 0.01 µM produced 46.5 ± 0.892% inhibition, the inhibition at 0.001 µM was found to be 24.5 ± 0.627% and the IC50 was 0.041 ± 0.001 µM. On hMAO-A, the inhibition at 1000 µM was 56.3 ± 0.996% and the inhibition at 100 µM was found to be 40.5 ± 0.782%.

For the molecule `O=C(CSc1nc2cc(Cl)ccc2s1)N(Cc1cccc([N+](=O)[O-])c1)c1ccc(F)cc1` [BB-4h, 2-((5-chlorobenzothiazol-2-yl)thio)-N-(4-fluorophenyl)-N-(3-nitrobenzyl)acetamide], in the data set on MAO-B, the IC50 is 2.95 ± 0.09 µM.

As for `Cn1cnnc1SCC(=O)N(Cc1ccccc1)c1ccc(S(N)(=O)=O)cc1` [Compound 4b, N-Benzyl-2-((4-methyl-4H-1,2,4-triazol-3-yl)thio)-N-(4-sulfamoylphenyl)acetamide], the melting point lay in the range of 201 to 203 °C. In addition, at hMAO-B [3], the inhibition at 1000 µM was 90.3 ± 1.3%, the inhibition at 100 µM was 86.3 ± 1.29%, the inhibition at 10 µM was 82.5 ± 1.11% and at 1 µM the inhibition was 76.9 ± 1.27%. In addition, at hMAO-B [3], the inhibition at 0.1 µM was 45.3 ± 0.974%, 0.01 µM produced 32.6 ± 0.728% inhibition, the inhibition at 0.001 µM was 20.4 ± 0.683% and the IC50 is 0.188 ± 0.008 µM. Also, at hMAO-A, the inhibition at 1000 µM is 37.6 ± 0.714% and the inhibition at 100 µM was found to be 20.1 ± 0.621%.

Regarding `Cc1ccc(CN(C(=O)CSc2nc3cc(Cl)ccc3s2)c2ccc(S(N)(=O)=O)cc2)cc1` [Compound 4t, 2-((5-Chlorobenzothiazol-2-yl)thio)-N-(4-methylbenzyl)-N-(4-sulfamoylphenyl)acetamide], the melting point lay in the range of 109 to 111 °C. Also, on hMAO-B [1], the type of inhibition result was “reversible and non-competitive”; the inhibition constant Ki amounted to 0.055 µM. Moreover, the IC50 in “Cytotoxicity MTT assay” was more than 1000 µM. Further, in data set [2], the “cytotoxicity (in words)” value is listed as “non-toxic; also recorded: non-cytotoxic at their effective concentrations”. At hMAO-B [3], this molecule displayed an inhibition at 1000 µM of 92.6 ± 1.13%, an inhibition at 100 µM of 88.6 ± 1.2%, an inhibition at 10 µM of 80.5 ± 1.16% and an inhibition at 1 µM of 74.7 ± 1.01%. In addition, on hMAO-B [3], the inhibition at 0.1 µM stood at 60.8 ± 1.16%, the inhibition at 0.01 µM is 36.1 ± 0.862%, the inhibition at 0.001 µM stood at 21 ± 0.594% and the IC50 was found to be 0.065 ± 0.002 µM. Further, at hMAO-A, the inhibition at 1000 µM was determined as 52.6 ± 0.987% and the inhibition at 100 µM is 38.3 ± 0.503%.

On to `Cc1ccc(CN(C(=O)CSc2ccccn2)c2ccc(S(N)(=O)=O)cc2)cc1` [Compound 4p, N-(4-Methylbenzyl)-2-(pyridin-2-ylthio)-N-(4-sulfamoylphenyl)acetamide], for which the melting point fell in the range of 121 to 123 °C. At hMAO-B [3], this molecule had an inhibition at 1000 µM of 70.5 ± 1.07% and an inhibition at 100 µM of 35.6 ± 0.622%. Besides, on hMAO-A, the inhibition at 1000 µM was found to be 45.2 ± 0.971% and the inhibition at 100 µM stood at 24.9 ± 0.792%.

`Cc1ccc(CN(C(=O)CSc2nc3ccccc3o2)c2ccc(S(N)(=O)=O)cc2)cc1` [Compound 4r, 2-(Benzoxazol-2-ylthio)-N-(4-methylbenzyl)-N-(4-sulfamoylphenyl)acetamide] returned a melting point of 148 to 150 °C. In addition, at hMAO-B [3], the inhibition at 1000 µM was determined as 67.5 ± 0.957% and the inhibition at 100 µM came out at 33.1 ± 0.798%. On hMAO-A, the inhibition at 1000 µM was determined as 42.4 ± 0.821% and the inhibition at 100 µM worked out at 32.7 ± 0.697%.
